Data published in patent publication US11230538B2, “Herbicides” (SYNGENTA PARTICIPATIONS AG, priority 2016, dated 2022).

Experiments:
Assay type in all cases: in vivo
[1] = tested on: Setaria fabenr (SETFA); test: B1 Pre-emergence herbicidal activity; parameters: key to Pre-emergence herbicidal activity, SETFA (damage score 0-5): 5=total damage to plant; 0=no damage to plant; settings: pre-emergence application, rate 1000 g/ha, evaluated after 13 days
Procedure, shortened: (§1)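 Seeds sown in standard soil in pots, held one day in a glasshouse (24/16 °C day/night, 14 h light, 65% humidity), then sprayed pre-emergence with compound in acetone/water (50:50) with 0.5% Tween 20. Plants grown under the same conditions, watered twice daily; damage scored after 13 days (0 = none, 5 = total).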

[2] = tested on: Lolium perenne (LOLPE); test: B2 Post-emergence herbicidal activity; settings: post-emergence application, rate 1000 g/ha, evaluated after 13 days
Procedure, shortened: (§2)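 Plants grown 8 days in standard soil in pots, then sprayed post-emergence with active ingredient in acetone/water (50:50) with 0.5% Tween 20. Glasshouse at 24/16 °C day/night, 14 h light, 65% humidity, watered twice daily. Damage scored after 13 days on a 0–5 scale (5 = total damage).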

[3] = tested on: Alopecurus myosuroides (ALOMY); test: B2 Post-emergence herbicidal activity; parameters: key: 5=total damage to plant; 0=no damage to plant; settings: post-emergence application, rate 1000 g/ha, evaluated after 13 days
Procedure, shortened: as §2

[4] = tested on: Setaria fabenri (SETFA); test: B2 Post-emergence herbicidal activity; parameters: key: 5=total damage to plant; 0=no damage to plant; settings: post-emergence application, rate 1000 g/ha, evaluated after 13 days
Procedure, shortened: as §2

[5] = tested on: Triticum aestivium (TRZAW); test: B2 Post-emergence herbicidal activity; parameters: key: 5=total damage to plant; 0=no damage to plant; settings: post-emergence application, rate 1000 g/ha, evaluated after 13 days
Procedure, shortened: as §2

[6] = tested on: Avena fatua (AVEFA); test: B1 Pre-emergence herbicidal activity; parameters: key: 5=total damage to plant; 0=no damage to plant; settings: pre-emergence application, rate 1000 g/ha, evaluated after 13 days
Procedure, shortened: as §1

[7] = tested on: Alopecurus myosuroides (ALOMY); test: B1 Pre-emergence herbicidal activity; parameters: key: 5=total damage to plant; 0=no damage to plant; settings: pre-emergence application, rate 1000 g/ha, evaluated after 13 days
Procedure, shortened: as §1

[8] = tested on: Triticum aestivium (TRZAW); test: B1 Pre-emergence herbicidal activity; parameters: key: 5=total damage to plant; 0=no damage to plant; settings: pre-emergence application, rate 1000 g/ha, evaluated after 13 days
Procedure, shortened: as §1

[9] = tested on: Echinochloa crus-galli (ECHCG); test: B2 Post-emergence herbicidal activity; parameters: key to Post-emergence herbicidal activity, ECHCG (damage score 0-5): 5=total damage to plant; 0=no damage to plant; settings: post-emergence application, rate 1000 g/ha, evaluated after 13 days
Procedure, shortened: as §2

[10] = tested on: Echinochloa crus-galli (ECHCG); test: B1 Pre-emergence herbicidal activity; parameters: key to Pre-emergence herbicidal activity, ECHCG (damage score 0-5): 5=total damage to plant; 0=no damage to plant; settings: pre-emergence application, rate 1000 g/ha, evaluated after 13 days
Procedure, shortened: as §1

[11] = tested on: Avena fatua (AVEFA); test: B2 Post-emergence herbicidal activity; settings: post-emergence application, rate 1000 g/ha, evaluated after 13 days
Procedure, shortened: as §2

[12] = tested on: Lolium perenne (LOLPE); test: B1 Pre-emergence herbicidal activity; parameters: key to Pre-emergence herbicidal activity, LOLPE (damage score 0-5): 5=total damage to plant; 0=no damage to plant; settings: pre-emergence application, rate 1000 g/ha, evaluated after 13 days
Procedure, shortened: as §1

| SMILES | Pre-emergence herbicidal activity, SETFA (damage score 0-5) [1] | Post-emergence herbicidal activity, LOLPE (damage score 0-5) [2] | Post-emergence herbicidal activity, ALOMY (damage score 0-5) [3] | Post-emergence herbicidal activity, SETFA (damage score 0-5) [4] | Post-emergence herbicidal activity, TRAZW (damage score 0-5) [5] | Pre-emergence herbicidal activity, AVEFA (damage score 0-5) [6] | Pre-emergence herbicidal activity, ALOMY (damage score 0-5) [7] | Pre-emergence herbicidal activity, TRAZW (damage score 0-5) [8] | Post-emergence herbicidal activity, ECHCG (damage score 0-5) [9] | Pre-emergence herbicidal activity, ECHCG (damage score 0-5) [10] | Post-emergence herbicidal activity, AVEFA (damage score 0-5) [11] | Pre-emergence herbicidal activity, LOLPE (damage score 0-5) [12] |
| --- | --- | --- | --- | --- | --- | --- | --- | --- | --- | --- | --- | --- |
| CC(C)C(=O)N(CC#N)c1ccc(-c2cncc(F)c2)nc1C(F)(F)F [Compound C58] | 5 | 1 | 0 | 5 | 0 | 0 | 0 | 0 | 4 | 3 | 2 | 0 |
| Cc1nc(-c2cncnc2)ccc1NC(=O)C(C)C [Compound C2, 2-methyl-N-(2-methyl-6-pyrimidin-5-yl-3-pyridyl)propanamide] | 5 | 2 | 1 | 5 | 1 | 0 | 0 | 0 | 5 | 3 | 3 | 1 |
| O=C1CCCN1c1ccc(-c2cncc(F)c2)nc1C(F)(F)F [Compound C55] | 4 | 2 | 1 | 4 | 0 | 1 | 0 | 0 | 4 | 1 | 3 | 1 |
| O=C(Nc1ccc(-c2cncnc2)nc1C(F)(F)F)C(Cl)(Cl)Cl [Compound C60] | 5 | 3 | 0 | 4 | 0 | 2 | 0 | 0 | 4 | 3 | 3 | 0 |
| CC(C)C(=O)Nc1ccc(-c2cncc(Cl)c2)nc1C(F)(F)F [Compound C12] | 4 | 2 | 1 | 5 | 0 | 0 | 0 | 0 | 5 | 2 | 3 | 1 |
| CC(=O)Nc1ccc(-c2cncnc2)nc1C(F)(F)F [Compound C7] | 4 | 3 | 1 | 5 | 1 | 3 | 0 | 0 | 4 | 4 | 4 | 1 |
| CSCCN(C(=O)C(C)C)c1ccc(-c2cncc(F)c2)nc1C(F)(F)F [Compound C88] | 2 | 1 | 1 | 2 | 1 | 0 | 0 | 0 | 1 | 1 | 1 | 0 |
| O=CNc1ccc(-c2cncc(F)c2)nc1C(F)(F)F [Compound C112] | 4 | 3 | 0 | 1 | 1 | 2 | 1 | 0 | 4 | 3 | 3 | 1 |
| O=C(c1ccccc1)N(CC1CC1)c1ccc(-c2cncc(F)c2)nc1C(F)(F)F [Compound C103] | 1 | 1 | 0 | 2 | 0 | 0 | 0 | 0 | 1 | 0 | 2 | 0 |
| C=CCN(C(=O)CC)c1ccc(-c2cncc(F)c2)nc1C(F)(F)F [Compound C39] | 5 | 2 | 0 | 5 | 1 | 2 | 0 | 0 | 5 | 4 | 3 | 1 |
| COCC(=O)N(CC1CC1)c1ccc(-c2cncc(F)c2)nc1C(F)(F)F [Compound C80] | 3 | 1 | 1 | 5 | 1 | 1 | 0 | 0 | 3 | 2 | 2 | 0 |
